The values below are quoted from earlier work in patent EP0773217A1, “Benzothiphene derivatives for treating resistant tumors” (ELI LILLY AND COMPANY, priority 1995, dated 1997).

In brackets after ≈: the same amount, converted by molar mass.

Series [1] relates to HL60/S cells. Particulars: no P-glycoprotein expression.
Series [2] relates to HL60/Adr cells. Particulars: HL60/Adr cells (resistant to doxorubicin, express p190, no P-glycoprotein).

On to `COc1cccc2c1C(=O)c1c(O)c3c(c(O)c1C2=O)C[C@@](O)(C(=O)CO)C[C@@H]3O[C@H]1C[C@H](N)[C@H](O)[C@H](C)O1` [ADRIAMYCIN™, Doxorubicin], for which the IC50 was 0.011 µg/mL (≈ 0.0202 µM) in series [1] and 2.2 µg/mL (≈ 4.05 µM) in series [2].
`COc1cc([C@@H]2c3cc4c(cc3[C@@H](O[C@@H]3O[C@@H]5CO[C@@H](C)O[C@H]5[C@H](O)[C@H]3O)[C@H]3COC(=O)[C@H]23)OCO4)cc(OC)c1O` [ETOPOSIDE™, etoposide]: the IC50 is 0.39 µg/mL (≈ 0.663 µM) in series [1] and above 10 µg/mL in series [2].

Broadly, the IC50 is the concentration that inhibits the measured activity by half.
